# Tested on: spontaneously hypertensive (SH) rats
# Experiment: Mean arterial pressure of conscious SH rats, direct measurement by cannulation of the caudal artery
# Assay type: in vivo
# Settings: for Mean arterial pressure at hours after treatment 0: 0 h; for Mean arterial pressure at hours after treatment 1/2: 1/2 h; for Mean arterial pressure at hours after treatment 1: 1 h; for Mean arterial pressure at hours after treatment 2: 2 h; for Mean arterial pressure at hours after treatment 4: 4 h; for Mean arterial pressure at hours after treatment 8: 8 h; for Mean arterial pressure at hours after treatment 12: 12 h; for Mean arterial pressure at hours after treatment 18: 18 h; for Mean arterial pressure at hours after treatment 24: 24 h
# Experimental: The test procedure used is substantially as follows: • The test animals used were conscious, male, SH rats weighing about 290 to about 340 grams. The arterial blood pressure was measured by a direct technique involving cannulation of the caudal artery. Initial blood pressure reading was recorded. The decarboxylase inhibitor was then administered intraperitoneally (i.p.) and about 5 minutes later the L-a-methyl-p-tyrosine was given [(i.p. or orally (p.o.)]. The blood pressure was then continuously recorded at 1/2 hour intervals for 24 hours. The effect on blood pressure of the decarboxylase inhibitor and the L-a-methyl-p-tyrosine alone was also obtained by this test method. The results of representative tests are in the following table: […]
# [1] = Test No. 2, Carbidopa 25 mg/kg i.p.
# [2] = Test No. 13, Carbidopa 25 mg/kg i.p.
# [3] = Test No. 3, α-methyl-p-tyrosine 5 mg/kg i.p.
# [4] = Test No. 4, α-methyl-p-tyrosine 20 mg/kg i.p.
# [5] = Test No. 5, α-methyl-p-tyrosine 40 mg/kg i.p.
# [6] = Test No. 6, α-methyl-p-tyrosine 80 mg/kg i.p.
# [7] = Test No. 14, α-Methyl-p-tyrosine 80 mg/kg p.o.
structure (smiles),measurement,setting,value
C[C@@](Cc1ccc(O)c(O)c1)(NN)C(=O)O [Carbidopa],Mean arterial pressure at hours after treatment 0,[1],167 mm Hg
same,Mean arterial pressure at hours after treatment 1/2,[1],166 mm Hg
same,Mean arterial pressure at hours after treatment 1,[1],164 mm Hg
same,Mean arterial pressure at hours after treatment 2,[1],166 mm Hg
same,Mean arterial pressure at hours after treatment 4,[1],158 mm Hg
same,Mean arterial pressure at hours after treatment 8,[1],167 mm Hg
same,Mean arterial pressure at hours after treatment 12,[1],172 mm Hg
same,Mean arterial pressure at hours after treatment 18,[1],172 mm Hg
same,Mean arterial pressure at hours after treatment 24,[1],162 mm Hg
same,Mean arterial pressure at hours after treatment 0,[2],184 mm Hg
same,Mean arterial pressure at hours after treatment 1/2,[2],184 mm Hg
same,Mean arterial pressure at hours after treatment 1,[2],180 mm Hg
same,Mean arterial pressure at hours after treatment 2,[2],178 mm Hg
same,Mean arterial pressure at hours after treatment 4,[2],177 mm Hg
same,Mean arterial pressure at hours after treatment 8,[2],184 mm Hg
same,Mean arterial pressure at hours after treatment 12,[2],183 mm Hg
same,Mean arterial pressure at hours after treatment 18,[2],185 mm Hg
same,Mean arterial pressure at hours after treatment 24,[2],182 mm Hg
"C[C@](N)(Cc1ccc(O)cc1)C(=O)O [α-methyl-p-tyrosine, L-α-methyl-p-tyrosine]",Mean arterial pressure at hours after treatment 0,[3],165 mm Hg
same,Mean arterial pressure at hours after treatment 1/2,[3],155 mm Hg
same,Mean arterial pressure at hours after treatment 1,[3],162 mm Hg
same,Mean arterial pressure at hours after treatment 2,[3],160 mm Hg
same,Mean arterial pressure at hours after treatment 4,[3],161 mm Hg
same,Mean arterial pressure at hours after treatment 8,[3],167 mm Hg
same,Mean arterial pressure at hours after treatment 12,[3],164 mm Hg
same,Mean arterial pressure at hours after treatment 18,[3],168 mm Hg
same,Mean arterial pressure at hours after treatment 24,[3],164 mm Hg
same,Mean arterial pressure at hours after treatment 0,[4],165 mm Hg
same,Mean arterial pressure at hours after treatment 1/2,[4],152 mm Hg
same,Mean arterial pressure at hours after treatment 1,[4],159 mm Hg
same,Mean arterial pressure at hours after treatment 2,[4],157 mm Hg
same,Mean arterial pressure at hours after treatment 4,[4],146 mm Hg
same,Mean arterial pressure at hours after treatment 8,[4],156 mm Hg
same,Mean arterial pressure at hours after treatment 12,[4],155 mm Hg
same,Mean arterial pressure at hours after treatment 18,[4],161 mm Hg
same,Mean arterial pressure at hours after treatment 24,[4],166 mm Hg
same,Mean arterial pressure at hours after treatment 0,[5],166 mm Hg
same,Mean arterial pressure at hours after treatment 1/2,[5],148 mm Hg
same,Mean arterial pressure at hours after treatment 1,[5],152 mm Hg
same,Mean arterial pressure at hours after treatment 2,[5],145 mm Hg
same,Mean arterial pressure at hours after treatment 4,[5],135 mm Hg
same,Mean arterial pressure at hours after treatment 8,[5],140 mm Hg
same,Mean arterial pressure at hours after treatment 12,[5],134 mm Hg
same,Mean arterial pressure at hours after treatment 18,[5],130 mm Hg
same,Mean arterial pressure at hours after treatment 24,[5],135 mm Hg
same,Mean arterial pressure at hours after treatment 0,[6],167 mm Hg
same,Mean arterial pressure at hours after treatment 1/2,[6],166 mm Hg
same,Mean arterial pressure at hours after treatment 1,[6],158 mm Hg
same,Mean arterial pressure at hours after treatment 2,[6],146 mm Hg
same,Mean arterial pressure at hours after treatment 4,[6],138 mm Hg
same,Mean arterial pressure at hours after treatment 8,[6],131 mm Hg
same,Mean arterial pressure at hours after treatment 12,[6],130 mm Hg
same,Mean arterial pressure at hours after treatment 18,[6],136 mm Hg
same,Mean arterial pressure at hours after treatment 24,[6],130 mm Hg
same,Mean arterial pressure at hours after treatment 0,[7],169 mm Hg
same,Mean arterial pressure at hours after treatment 1/2,[7],165 mm Hg
same,Mean arterial pressure at hours after treatment 1,[7],166 mm Hg
same,Mean arterial pressure at hours after treatment 2,[7],161 mm Hg
same,Mean arterial pressure at hours after treatment 4,[7],143 mm Hg
same,Mean arterial pressure at hours after treatment 8,[7],147 mm Hg
same,Mean arterial pressure at hours after treatment 12,[7],161 mm Hg
same,Mean arterial pressure at hours after treatment 18,[7],165 mm Hg
same,Mean arterial pressure at hours after treatment 24,[7],173 mm Hg

# Reference: patent publication EP0003353A1, “A pharmaceutical composition for oral administration for treating hypertension” (Merck & Co., Inc., priority 1978, dated 1979)
